Results from patent US20200069644A1, “NOVEL USE OF A FORMYL PEPTIDE RECEPTOR 2/ LIPOXIN A4 RECEPTOR (FPR2/ALX) AGONIST FOR TREATMENT OF HEART FAILURE” (BRISTOL- MYERS SQUIBB COMPANY, priority 2017, published 2020).

How the values were obtained:
[1] = tested on: angiotensin II-induced cardiac fibrosis in mice; test: Angiotensin II-induced cardiac fibrosis mouse model; assay type: in vivo; conditions: 3 mg/kg QD for 3 weeks, P<0.001
Description: To assess myocardial fibrosis in the setting of non-ischemic heart disease with hypertension, mice were challenged with angiotensin II to stimulate cardiac hypertrophy and left ventricular fibrosis. Mice were administered angiotensin II using subcutaneously implanted osmotic mini-pumps (˜2 mg/kg/day). A separate group of mice were implanted with subcutaneous pumps containing saline (surgical “sham” group); these mice served as control for pump implantation surgery. Mice were treated with Compound 1 (3 mg/kg, QD) or dosing solution without compound (QD, referred to as vehicle) starting 7 days following pump implantation. In this model, cardiac fibrosis development reaches its peak and without treatment, will remain fibrotic at this high level until the angII is depleted (˜4 weeks post implantation). Interventional treatment with Compound 1 to regress cardiac fibrosis was given to mice for 3 weeks. At the end of treatment phase, hearts were removed from animals and evaluated for collagen levels/fibrosis by cross-sectional histology of the hearts.
Myocardial fibrosis was evaluated in the mouse with continuous angiotensin II challenge administered by subcutaneous osmotic mini-pump. This is a model of non-ischemic heart disease.
The effect of Compound 1 on regression of established cardiac fibrosis was evaluated in the angiotensin II-induced cardiac fibrosis mouse model. […]

[2] = molecular target: T1, Human FPR1 (Homo sapiens, UniProt P21462); test: FPR1 cAMP assay (cAMP inhibition); assay type: cell-based; conditions: Human FPR1/CHO-A12
T1 construct: expressed in transfected cells; host or cells: CHO-A12
T1 sequence (P21462 1-350): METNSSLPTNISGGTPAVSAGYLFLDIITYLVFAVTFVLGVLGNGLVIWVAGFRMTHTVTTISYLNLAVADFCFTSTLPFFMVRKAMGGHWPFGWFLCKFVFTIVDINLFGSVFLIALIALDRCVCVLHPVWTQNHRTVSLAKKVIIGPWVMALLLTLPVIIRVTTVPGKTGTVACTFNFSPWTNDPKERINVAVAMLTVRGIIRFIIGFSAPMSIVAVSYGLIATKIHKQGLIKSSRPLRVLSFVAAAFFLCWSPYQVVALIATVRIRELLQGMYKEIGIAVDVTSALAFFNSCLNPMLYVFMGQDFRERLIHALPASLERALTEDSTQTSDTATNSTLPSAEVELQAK
Description: A mixture of forskolin (5 μM final for FPR2 or 10 μM final for FPR1) and IBMX (200 μM final) were added to 384-well Proxiplates (Perkin-Elmer) pre-dotted with test compounds in DMSO (1% final) at final concentrations in the range of 0.1 nM to 10 μM. CHO overexpressing human FPR1 or human FPR2 receptors were cultured in F-12 (Ham's) medium supplemented with 10% qualified FBS, 250 μg/ml zeocin and 300 μg/ml hygromycin (Life Technologies). Reactions were initiated by adding 2,000 human FPR2 cells per well or 4,000 human FPR1 cells per well in Dulbecco's PBS (with calcium and magnesium) (Life Technologies) supplemented with 0.1% BSA (Perkin-Elmer). The reaction mixtures were incubated for 30 min at room temperature. The level of intracellular cAMP was determined using the HTRF HiRange cAMP assay reagent kit (Cisbio) according to manufacturer's instruction. Solutions of cryptate conjugated anti-cAMP and d2 flurorophore-labelled cAMP were made in a supplied lysis buffer separately. […] After a 1 h room temperature incubation, time-resolved fluorescence intensity was measured using the Envision (Perkin-Elmer) at 400 nm excitation and dual emission at 590 nm and 665 nm. […] The potency and activity of Compound 1 to inhibit cAMP production was then determined by fitting to a 4-parametric logistic equation from a plot of cAMP level versus compound concentrations. […]

[3] = tested on: Rat FPR2; test: cAMP inhibition, rat FPR2 CHO cells; assay type: cell-based; conditions: CHO cell lines, cAMP
[4] = molecular target: Rat FPR2 (Rattus norvegicus, UniProt A0A8I6AM80); test: cAMP inhibition, rat FPR2 CHO cells; assay type: cell-based; conditions: Rat FPR2
Sequence of Rat FPR2 (Rattus norvegicus, UniProt A0A8I6AM80) (A0A8I6AM80 1-351): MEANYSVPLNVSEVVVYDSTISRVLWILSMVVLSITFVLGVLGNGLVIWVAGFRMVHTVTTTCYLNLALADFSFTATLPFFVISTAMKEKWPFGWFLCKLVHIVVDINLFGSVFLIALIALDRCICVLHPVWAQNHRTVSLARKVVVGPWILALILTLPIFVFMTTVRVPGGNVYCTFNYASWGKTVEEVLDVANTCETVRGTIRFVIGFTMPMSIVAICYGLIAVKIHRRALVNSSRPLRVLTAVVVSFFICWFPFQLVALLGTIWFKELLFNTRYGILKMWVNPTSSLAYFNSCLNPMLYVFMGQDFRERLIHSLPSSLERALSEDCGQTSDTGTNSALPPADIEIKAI

Structure (SMILES): COc1cc(F)c([C@@H]2CNC(=O)[C@H]2NC(=O)Nc2ccccc2)c(F)c1 [Compound 1, 1-((3S,4R)-4-(2,6-difluoro-4-methoxyphenyl)-2-oxopyrrolidin-3-yl)-3-phenylurea]
- reduction of left ventricular fibrosis vs. vehicle treatment group ([1]; started 7 days after pump implantation): 90%
- reduction of fibrosis relative to 7-day baseline group [1]: 89%
- EC50 [2]: 1250 nM
- selectivity for rat FPR2 vs. FPR1 [3]: 480 fold
- EC50 [4]: 1.5 nM
